Results on 18 molecules are retold here after ChEMBL document CHEMBL1909046, “DrugMatrix in vitro pharmacology data”.

One test deals with Cannabinoid receptor 1 (Homo sapiens, UniProt P21554). The test is classed as cell membranes, Chem-1, Membrane. Particulars: chem-1.
In the next test the target is Vasopressin V1a receptor (Homo sapiens, UniProt P37288). The test is classed as cell membranes, Membrane. The note with it: hek293. Further: in other assays of this panel Not Active means under 50% inhibition at 10 µM.
Chain of Vasopressin V1a receptor (P37288 whole entry): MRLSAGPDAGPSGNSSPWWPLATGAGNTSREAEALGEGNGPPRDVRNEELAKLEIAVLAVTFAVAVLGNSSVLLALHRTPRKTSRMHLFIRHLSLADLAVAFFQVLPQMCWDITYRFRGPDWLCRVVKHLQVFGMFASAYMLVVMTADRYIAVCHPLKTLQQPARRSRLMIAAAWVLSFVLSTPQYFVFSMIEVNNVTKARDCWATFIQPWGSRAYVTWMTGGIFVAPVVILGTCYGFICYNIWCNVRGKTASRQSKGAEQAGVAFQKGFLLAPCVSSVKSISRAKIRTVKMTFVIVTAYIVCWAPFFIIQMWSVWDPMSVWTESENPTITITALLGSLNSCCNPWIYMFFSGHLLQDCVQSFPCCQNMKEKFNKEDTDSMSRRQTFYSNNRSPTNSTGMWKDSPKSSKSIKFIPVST
In a further test the target is Melanocortin receptor 3 (Homo sapiens, UniProt P41968). The test is classed as cell membranes, Membrane. The note with it: hek293. Further: in other assays of this panel Not Active means under 50% inhibition at 10 µM.
Chain of Melanocortin receptor 3 (P41968 whole entry): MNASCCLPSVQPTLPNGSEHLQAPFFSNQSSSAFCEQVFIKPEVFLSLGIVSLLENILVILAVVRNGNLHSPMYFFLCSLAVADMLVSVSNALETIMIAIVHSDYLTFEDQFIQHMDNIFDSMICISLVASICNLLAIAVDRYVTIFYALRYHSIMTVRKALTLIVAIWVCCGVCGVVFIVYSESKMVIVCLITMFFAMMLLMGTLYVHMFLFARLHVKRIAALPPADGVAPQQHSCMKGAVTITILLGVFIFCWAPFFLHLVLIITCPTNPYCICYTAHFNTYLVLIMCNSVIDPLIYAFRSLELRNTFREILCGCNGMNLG
The nature of test [1]: DRUGMATRIX: Nicotinic Acetylcholine radioligand binding (ligand: [125I] Epibatidine). The test is classed as cell membranes, Membrane. The note with it: imr-32; Not Active = under 50% inhibition at 10 µM.
For test [2], the target named is Sodium-dependent dopamine transporter (Homo sapiens, UniProt Q01959). Nature of the test: DRUGMATRIX: Dopamine Transporter radioligand binding (ligand: [125I] RTI-55). Particulars: Not Active = under 50% inhibition at 10 µM. The test is classed as cell membranes, CHO-K1, Membrane.
Chain of Sodium-dependent dopamine transporter (Q01959 whole entry): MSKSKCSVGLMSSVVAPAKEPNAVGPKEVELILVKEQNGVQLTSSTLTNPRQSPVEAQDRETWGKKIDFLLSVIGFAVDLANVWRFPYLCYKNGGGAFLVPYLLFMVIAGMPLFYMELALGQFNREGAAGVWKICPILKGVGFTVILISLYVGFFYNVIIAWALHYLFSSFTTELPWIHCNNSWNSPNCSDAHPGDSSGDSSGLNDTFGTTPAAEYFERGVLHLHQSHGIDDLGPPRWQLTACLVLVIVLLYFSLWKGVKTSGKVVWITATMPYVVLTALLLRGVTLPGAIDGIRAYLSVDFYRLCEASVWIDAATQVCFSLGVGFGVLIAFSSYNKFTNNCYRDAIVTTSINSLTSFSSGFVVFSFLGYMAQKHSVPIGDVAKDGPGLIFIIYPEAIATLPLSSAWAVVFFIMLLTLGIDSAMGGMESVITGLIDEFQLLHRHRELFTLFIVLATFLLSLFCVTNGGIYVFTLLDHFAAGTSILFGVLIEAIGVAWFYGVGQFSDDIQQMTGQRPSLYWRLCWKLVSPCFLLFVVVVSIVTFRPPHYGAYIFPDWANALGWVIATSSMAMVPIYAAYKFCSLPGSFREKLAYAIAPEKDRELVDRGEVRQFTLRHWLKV
A further test concerns the target T1, Adenosine receptor A3 (Homo sapiens, UniProt P0DMS8).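 Further: radioligand binding assay with AB-MECA serving as the labeled ligand; in other assays of this panel Not Active means under 50% inhibition at 10 µM.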
T1 sequence (P0DMS8 whole entry): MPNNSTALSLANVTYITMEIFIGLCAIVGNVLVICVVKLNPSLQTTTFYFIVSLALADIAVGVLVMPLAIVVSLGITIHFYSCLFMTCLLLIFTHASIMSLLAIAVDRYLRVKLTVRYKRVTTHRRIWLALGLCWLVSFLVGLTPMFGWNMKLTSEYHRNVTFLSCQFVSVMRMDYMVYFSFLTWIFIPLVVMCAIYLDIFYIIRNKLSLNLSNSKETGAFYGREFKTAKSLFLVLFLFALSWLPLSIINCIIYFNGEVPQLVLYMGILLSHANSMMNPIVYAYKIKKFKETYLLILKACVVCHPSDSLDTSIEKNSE
The test is classed as cell membranes, CHO-K1, Membrane. Particulars: cho-k1.

The next test concerns the target T2, B2 bradykinin receptor (Homo sapiens, UniProt P30411). Further: in other assays of this panel Not Active means under 50% inhibition at 10 µM.
T2 sequence (P30411 whole entry): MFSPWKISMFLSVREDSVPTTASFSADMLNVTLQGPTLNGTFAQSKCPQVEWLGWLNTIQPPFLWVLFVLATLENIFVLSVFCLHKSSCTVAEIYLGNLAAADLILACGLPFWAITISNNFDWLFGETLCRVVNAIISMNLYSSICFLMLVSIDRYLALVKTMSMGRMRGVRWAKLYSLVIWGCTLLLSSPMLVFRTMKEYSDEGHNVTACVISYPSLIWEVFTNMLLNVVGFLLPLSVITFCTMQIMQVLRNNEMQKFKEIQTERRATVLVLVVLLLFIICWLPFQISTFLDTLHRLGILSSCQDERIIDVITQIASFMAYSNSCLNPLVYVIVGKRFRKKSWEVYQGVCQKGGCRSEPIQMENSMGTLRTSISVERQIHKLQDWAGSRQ
Type of test: cell membranes, Membrane. The note with it: chem-1.

Chain of Cannabinoid receptor 1 (P21554 whole entry): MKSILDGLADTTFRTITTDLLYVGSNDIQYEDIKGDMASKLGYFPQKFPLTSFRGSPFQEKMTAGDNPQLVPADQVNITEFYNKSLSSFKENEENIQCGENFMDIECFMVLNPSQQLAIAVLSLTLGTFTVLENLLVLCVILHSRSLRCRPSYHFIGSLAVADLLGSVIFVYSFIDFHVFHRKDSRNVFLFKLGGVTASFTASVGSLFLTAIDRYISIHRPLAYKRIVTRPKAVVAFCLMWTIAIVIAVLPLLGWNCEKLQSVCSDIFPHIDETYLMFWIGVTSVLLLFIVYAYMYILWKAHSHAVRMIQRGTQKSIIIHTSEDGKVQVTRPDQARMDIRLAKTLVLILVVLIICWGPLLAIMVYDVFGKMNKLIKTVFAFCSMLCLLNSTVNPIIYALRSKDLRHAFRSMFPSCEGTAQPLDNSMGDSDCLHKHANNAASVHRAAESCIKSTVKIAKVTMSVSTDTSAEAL

What is called IC50 is the point on the concentration scale where inhibition reaches its midpoint. In general, Ki refers to a measure of affinity in units of concentration, obtained from inhibition or displacement. With `CN1CCCC(CN2c3ccccc3Sc3ccccc32)C1` (stereo not given) [MEPAZINE], the IC50 entry (on Cannabinoid receptor 1; on Vasopressin V1a receptor; on Melanocortin receptor 3; in test [1]; in test [2] (cho-k1); on Adenosine receptor A3) was “Not Active” each time. In addition, on B2 bradykinin receptor, the IC50 entry was “Not Active”. The Ki result in test [1] is recorded as “Not Active”.

Turning to `Cc1cccc(C)c1NC(=O)C1CCCCN1C` (stereo not given) [MEPIVACAINE], the IC50 result (on Cannabinoid receptor 1; on Vasopressin V1a receptor; at Melanocortin receptor 3; in test [1]; in test [2] (cho-k1); against Adenosine receptor A3) was “Not Active” in each case. The IC50 result against B2 bradykinin receptor is recorded as “Not Active”. In addition, the inhibitory constant (Ki) entry in test [1] is given as “Not Active”.

In the case of `CN(C)C(=N)NC(=N)N` [METFORMIN], the IC50 entry (at Cannabinoid receptor 1; against Vasopressin V1a receptor; at Melanocortin receptor 3; in test [1]; in test [2] (cho-k1); against Adenosine receptor A3) was “Not Active” in each case. In addition, the half-maximal inhibitory concentration (IC50) result against B2 bradykinin receptor was “Not Active”. Besides, in test [1], the Ki result was “Not Active”.

As to `CC(C)(C)NCC(O)COc1cccc2c1CC(O)C(O)C2` (stereo not given) [NADOLOL], the IC50 result (on Cannabinoid receptor 1; on Vasopressin V1a receptor; against Melanocortin receptor 3; in test [1]; in test [2] (cho-k1); on Adenosine receptor A3) was “Not Active” each time. For the same molecule, the half-maximal inhibitory concentration (IC50) result at B2 bradykinin receptor is on record as “Not Active”. In addition, the Ki entry in test [1] is listed as “Not Active”.

As for `C[C@]12CC[C@H]3[C@@H](CCC4=CC(=O)CC[C@@H]43)[C@@H]1CC[C@@H]2O` [NANDROLONE], the half-maximal inhibitory concentration (IC50) entry (against Cannabinoid receptor 1; against Vasopressin V1a receptor; against Melanocortin receptor 3; in test [1]; in test [2] (cho-k1); on Adenosine receptor A3) was “Not Active” in each case. Besides, the IC50 result against B2 bradykinin receptor is “Not Active”. Further, the Ki result in test [1] is on record as “Not Active”.

Regarding `C[C@@H]1C/C=C/C=C/C=C/C=C/[C@H](O[C@@H]2O[C@H](C)[C@@H](O)[C@H](N)[C@@H]2O)C[C@@H]2O[C@](O)(C[C@@H](O)C[C@H]3O[C@@H]3/C=C/C(=O)O1)C[C@H](O)[C@H]2C(=O)O` [NATAMYCIN], the half-maximal inhibitory concentration (IC50) result (against Cannabinoid receptor 1; on Vasopressin V1a receptor; on Melanocortin receptor 3; in test [1]; in test [2] (cho-k1); at Adenosine receptor A3) was “Not Active” each time. Further, the half-inhibitory concentration (IC50) result on B2 bradykinin receptor was “Not Active”. Further, the Ki result in test [1] is given as “Not Active”.

On to `CN(C)C(=O)Oc1cccc([N+](C)(C)C)c1.[Br-]` [NEOSTIGMINE BROMIDE], for which the 50% inhibitory concentration (IC50) entry (against Cannabinoid receptor 1; at Vasopressin V1a receptor; against Melanocortin receptor 3; in test [1]; in test [2] (cho-k1); against Adenosine receptor A3) was “Not Active” throughout. Moreover, the IC50 result against B2 bradykinin receptor was “Not Active”. The inhibitory constant (Ki) result in test [1] was “Not Active”.

For `NC(=O)c1cccnc1` [NIACINAMIDE], the half-maximal inhibitory concentration (IC50) result (on Cannabinoid receptor 1; on Vasopressin V1a receptor; against Melanocortin receptor 3; in test [1]; in test [2] (cho-k1); on Adenosine receptor A3) was “Not Active” each time. The IC50 entry at B2 bradykinin receptor was “Not Active”. Besides, the Ki result in test [1] is listed as “Not Active”.

For `CS(=O)(=O)Nc1ccc([N+](=O)[O-])cc1Oc1ccccc1` [NIMESULIDE], the IC50 result is “Not Active” at Cannabinoid receptor 1; “Not Active” against Vasopressin V1a receptor; “Not Active” against Melanocortin receptor 3; “Not Active” in test [1]; 14.9 µM in test [2] (read-out: IC50); “Not Active” against Adenosine receptor A3. Also, the IC50 result against B2 bradykinin receptor is given as “Not Active”. The Ki entry in test [1] was “Not Active”; in test [2] (read-out: Ki), 11.8 µM.

Turning to `CN1C(=O)CN=C(c2ccccc2)c2cc([N+](=O)[O-])ccc21` [NIMETAZEPAM], the concentration for half-maximal inhibition (IC50) entry (against Cannabinoid receptor 1; against Vasopressin V1a receptor; against Melanocortin receptor 3; in test [1]; in test [2] (cho-k1); against Adenosine receptor A3) was “Not Active” in each case. Besides, the 50% inhibitory concentration (IC50) result against B2 bradykinin receptor is reported as “Not Active”. Further, the Ki result in test [1] is “Not Active”.

Consider `COc1ccc2c(c1OC)C(=O)O[C@@H]2[C@H]1c2c(cc3c(c2OC)OCO3)CCN1C` [NOSCAPINE], for which the IC50 result (at Cannabinoid receptor 1; at Vasopressin V1a receptor; at Melanocortin receptor 3; in test [1]; in test [2] (cho-k1); at Adenosine receptor A3) was “Not Active” in each case. Besides, the concentration for half-maximal inhibition (IC50) result at B2 bradykinin receptor was “Not Active”. Besides, the inhibition constant Ki entry in test [1] is given as “Not Active”.

Take `C[C@@H]1O[C@@H](O[C@H]2C[C@@H](O)[C@]3(CO)[C@H]4[C@H](O)C[C@]5(C)[C@@H](C6=CC(=O)OC6)CC[C@]5(O)[C@@H]4CC[C@]3(O)C2)[C@H](O)[C@H](O)[C@H]1O` [OUABAIN]: the IC50 entry (against Cannabinoid receptor 1; against Vasopressin V1a receptor; at Melanocortin receptor 3; in test [1]; in test [2] (cho-k1); against Adenosine receptor A3) was “Not Active” in each case. Moreover, on B2 bradykinin receptor, the concentration for half-maximal inhibition (IC50) result is given as “Not Active”. For the same molecule, the Ki result in test [1] is given as “Not Active”.

On to `NC(=O)N1c2ccccc2CC(=O)c2ccccc21` [OXCARBAZEPINE], for which the half-maximal inhibitory concentration (IC50) entry (on Cannabinoid receptor 1; at Vasopressin V1a receptor; against Melanocortin receptor 3; in test [1]; in test [2] (cho-k1); at Adenosine receptor A3) was “Not Active” each time. Further, at B2 bradykinin receptor, the IC50 entry is on record as “Not Active”. In test [1], the inhibition constant Ki result was “Not Active”.

Turning to `COc1ccnc(C[S+]([O-])c2nc3ccc(OC(F)F)cc3[nH]2)c1OC` (stereo not given) [PANTOPRAZOLE], the IC50 result (at Cannabinoid receptor 1; on Vasopressin V1a receptor; against Melanocortin receptor 3; in test [1]; in test [2] (cho-k1); against Adenosine receptor A3) was “Not Active” in each case. The IC50 result against B2 bradykinin receptor was “Not Active”. Also, the Ki entry in test [1] is “Not Active”.

In the case of `NNCCc1ccccc1` [PHENELZINE], the half-maximal inhibitory concentration (IC50) result (at Cannabinoid receptor 1; at Vasopressin V1a receptor; on Melanocortin receptor 3; in test [1]; in test [2] (cho-k1); against Adenosine receptor A3) was “Not Active” throughout. Further, at B2 bradykinin receptor, the IC50 result is on record as “Not Active”. Also, the inhibitory constant (Ki) entry in test [1] was “Not Active”.

For the molecule `CCc1ccc(CCOc2ccc(CC3SC(=O)NC3=O)cc2)nc1` (stereo not given) [PIOGLITAZONE], the IC50 result (against Cannabinoid receptor 1; against Vasopressin V1a receptor; at Melanocortin receptor 3; in test [1]; in test [2] (cho-k1); on Adenosine receptor A3) was “Not Active” throughout. In addition, at B2 bradykinin receptor, the 50% inhibitory concentration (IC50) entry was “Not Active”. Further, in test [1], the Ki result is reported as “Not Active”.

Regarding `CCCNC(C)C(=O)Nc1ccccc1C` (stereo not given) [PRILOCAINE], the IC50 entry (on Cannabinoid receptor 1; against Vasopressin V1a receptor; against Melanocortin receptor 3; in test [1]; in test [2] (cho-k1); against Adenosine receptor A3) was “Not Active” in each case. In addition, the IC50 entry against B2 bradykinin receptor is “Not Active”. Besides, the Ki result in test [1] is “Not Active”.

As to `CCN(CC)CCNC(=O)c1ccc(N)cc1` [PROCAINAMIDE], the IC50 entry (on Cannabinoid receptor 1; against Vasopressin V1a receptor; on Melanocortin receptor 3; in test [1]; in test [2] (cho-k1); on Adenosine receptor A3) was “Not Active” throughout. Further, the IC50 result on B2 bradykinin receptor is “Not Active”. Besides, the Ki result in test [1] is on record as “Not Active”.
